PubChem BioAssay (NCI)
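Method: 48-hour compound exposure of cells in 96-well plates, five concentrations, linear interpolation of endpoints. GI50 marks 50% less growth. Definition used: TGI = concentration required for complete inhibition of growth.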

Key:
Assay in all cases: NCI-60 cell line screen, 48 h
A549 NSCLC = system: A549 NSCLC
CAKI-1 renal = system: CAKI-1 renal
HCC-2998 colon = system: HCC-2998 colon
HCT-15 colon = system: HCT-15 colon
IGROV1 ovarian = system: IGROV1 ovarian
LOX IMVI melanoma = system: LOX IMVI melanoma
NCI-H522 lung = system: NCI-H522 lung
SK-OV-3 ovarian = system: SK-OV-3 ovarian
SR leukemia = system: SR leukemia
TK-10 renal = system: TK-10 renal

With O=C(Nc1ccccc1C(=O)N/N=C(\c1ccccc1)c1ccccn1)c1ccc(F)cc1 the GI50 (A549 NSCLC) was 0.451 µM, the TGI (A549 NSCLC) was over 100 µM and the GI50 (CAKI-1 renal) was 0.42 µM. The TGI (CAKI-1 renal) was over 100 µM, the GI50 (HCC-2998 colon) was 0.321 µM and the TGI (HCC-2998 colon) was over 100 µM. It also gave a GI50 (HCT-15 colon) of 0.0426 µM, a TGI (HCT-15 colon) of over 100 µM and a GI50 (IGROV1 ovarian) of 0.198 µM. The TGI (IGROV1 ovarian) was over 100 µM, the GI50 (LOX IMVI melanoma) was 0.247 µM and the TGI (LOX IMVI melanoma) was over 100 µM. The GI50 (NCI-H522 lung) was 0.393 µM, the TGI (NCI-H522 lung) was over 28.6 µM and the GI50 (SK-OV-3 ovarian) was 0.354 µM. The TGI (SK-OV-3 ovarian) was over 20.9 µM, the GI50 (SR leukemia) was 0.142 µM and the TGI (SR leukemia) was over 100 µM. It also gave a GI50 (TK-10 renal) of 0.408 µM and a TGI (TK-10 renal) of over 100 µM.

Work on COC(=O)/C(=N/NC(N)=O)C(C(=O)OC)C(=O)C(=O)Nc1ccc(Cl)cc1 (stereo not given) yielded a TGI (A549 NSCLC) of over 100 µM, a TGI (CAKI-1 renal) of over 100 µM and a TGI (HCC-2998 colon) of over 100 µM. The TGI (HCT-15 colon) was over 100 µM, the TGI (IGROV1 ovarian) was over 100 µM and the TGI (LOX IMVI melanoma) was over 100 µM. For the same compound, the TGI (NCI-H522 lung) was over 100 µM, the TGI (SK-OV-3 ovarian) was over 100 µM and the TGI (SR leukemia) was 46.5 µM. For the same compound, the TGI (TK-10 renal) was over 100 µM.

In the case of CCSC(SCC)=C1C(=O)N(c2ccccc2)N=C1C, the TGI (A549 NSCLC) is reported as 35.1 µM, the TGI (CAKI-1 renal) is reported as 15.8 µM and the TGI (HCC-2998 colon) is reported as 27.6 µM. It also gave a TGI (HCT-15 colon) of 24.7 µM, a TGI (IGROV1 ovarian) of 33.2 µM and a TGI (LOX IMVI melanoma) of 26.4 µM. It also gave a TGI (NCI-H522 lung) of 5.05 µM, a TGI (SK-OV-3 ovarian) of 33.4 µM and a TGI (SR leukemia) of 38.4 µM. For the same compound, the TGI (TK-10 renal) was 22.2 µM.

Work on COc1ccc(C(O)CC(O)(C(F)(F)F)C(F)(F)F)cc1 (stereo not given) yielded a TGI (A549 NSCLC) of over 100 µM, a TGI (CAKI-1 renal) of 55.1 µM and a TGI (HCC-2998 colon) of over 100 µM. For the same compound, the TGI (HCT-15 colon) was over 100 µM, the TGI (IGROV1 ovarian) was 84.4 µM and the TGI (LOX IMVI melanoma) was 36 µM. For the same compound, the TGI (NCI-H522 lung) was over 100 µM, the TGI (SK-OV-3 ovarian) was over 100 µM and the TGI (SR leukemia) was 56.3 µM. It also gave a TGI (TK-10 renal) of over 100 µM.

With CC1(C)OC2C(COS(N)(=O)=O)SC(n3cnc4cncnc43)C2O1 (stereo not given) the GI50 (A549 NSCLC) was over 100 µM, the TGI (A549 NSCLC) was over 100 µM and the GI50 (CAKI-1 renal) was over 100 µM. For the same compound, the TGI (CAKI-1 renal) was over 100 µM, the GI50 (HCC-2998 colon) was over 100 µM and the TGI (HCC-2998 colon) was over 100 µM. For the same compound, the GI50 (HCT-15 colon) was over 100 µM, the TGI (HCT-15 colon) was over 100 µM and the GI50 (IGROV1 ovarian) was over 100 µM. For the same compound, the TGI (IGROV1 ovarian) was over 100 µM, the GI50 (LOX IMVI melanoma) was over 100 µM and the TGI (LOX IMVI melanoma) was over 100 µM. The GI50 (NCI-H522 lung) was over 100 µM, the TGI (NCI-H522 lung) was over 100 µM and the GI50 (SK-OV-3 ovarian) was over 100 µM. It also gave a TGI (SK-OV-3 ovarian) of over 100 µM, a GI50 (SR leukemia) of over 100 µM and a TGI (SR leukemia) of over 100 µM. The GI50 (TK-10 renal) was over 100 µM and the TGI (TK-10 renal) was over 100 µM.
